# Data: US6582351B1, “Imidazopyridinone derivatives and their use as phosphodiesterase inhibitors” (Fujisawa Pharmaceutical Co., Ltd., priority 1999, dated 2003)
row,melting point [°C],SMILES
1,114 to 116,"COc1ccc(Cn2c(=O)n([C@H]3CC[C@H](O)CC3)c3ncc(C#N)cc32)cc1Br [Example 2(100), 1-(3-Bromo-4-methoxybenzyl)-6-cyano-3-(trans-4-hydroxycyclohexyl)-2,3-dihydro-1H-imidazo[4,5-b]pyridin-2-one]"
2,174 to 175,"COc1ccc(Cn2c(=O)n([C@H]3CC[C@H](O)CC3)c3ccc(C)cc32)cc1OC [Example 19(4), 3-(3,4-Dimethoxybenzyl)-1-(trans-4-hydroxycyclohexyl)-5-methyl-2,3-dihydro-1H-benzimidazol-2-one]"
3,163 to 166,"COc1ccc(Cn2c(=O)n(-c3ccc4nc[nH]c4c3)c3ncc(C#N)cc32)cc1Cl [Example 2(104), 3-(Benzimidazol-5-yl)-1-(3-chloro-4-methoxybenzyl)-6-cyano-2,3-dihydro-1H-imidazo[4,5-b]pyridin-2-one]"
4,128 to 130,"COc1ccc(Cn2c(=O)n([C@H]3CC[C@H](O)CC3)c3ncc(C(F)(F)F)cc32)cc1OC [Example 18, 1-(3,4-dimethoxybenzyl)-3-(trans-4-hydroxycyclohexyl)-6-trifluoromethyl-2,3-dihydro-1H-imidazo[4,5-b]pyridin-2-one]"
5,275 to 276,"COc1ccc(Cn2c(=O)n([C@H]3CC[C@H](O)CC3)c3ccc(C(=O)O)cc32)cc1Cl [Example 19(5), 5-Carboxy-3-(3-chloro-4-methoxybenzyl)-1-(trans-4-hydroxycyclohexyl)-2,3-dihydro-1H-benzimidazol-2-one]"
6,291.5 to 292,"COc1ccc(Cn2c(=O)n([C@H]3CC[C@H](O)CC3)c3ccc(C(N)=O)cc32)cc1Cl [Example 20, 5-carbamoyl-3-(3-chloro-4-methoxybenzyl)-1-(trans-4-hydroxycyclohexyl)-2,3-dihydro-1H-benzimidazol-2-one]"
7,164 to 165,"COc1ccc(Cn2c(=O)n([C@H](C)CO)c3ncc(C#N)cc32)cc1Cl [Example 4(8), 1-(3-Chloro-4-methoxybenzyl)-6-cyano-3-((R)-2-hydroxy-1-methylethyl)-2,3-dihydro-1H-imidazo[4,5-b]pyridin-2-one]"
8,146 to 148,"COC(=O)c1cnc2c(c1)n(Cc1ccc(OC)c(Cl)c1)c(=O)n2[C@H]1CC[C@H](O)CC1 [Example 2(98), 1-(3-Chloro-4-methoxybenzyl)-3-(trans-4-hydroxycyclohexyl)-6-methoxycarbonyl-2,3-dihydro-1H-imidazo[4,5-b]pyridin-2-one]"

# Second part, the compound before the results:
row,SMILES,melting point [°C]
1,"COc1ccc(Cn2c(=O)n([C@H]3CC[C@H](OC(C)=O)CC3)c3ncc(C(F)(F)F)cc32)cc1OC [Example 2(12), 3-(trans-4-Acetoxycyclohexyl)-1-(3,4-dimethoxybenzyl)-6-trifluoromethyl-2,3-dihydro-1H-imidazo[4,5-b]pyridin-2-one]",130 to 133
2,"COc1ccc(Cn2c(=O)n([C@H]3CC[C@H](NC(=O)OC(C)(C)C)CC3)c3ccc(C(F)(F)F)cc32)cc1Cl [Example 2(99), 1-[trans-4-(N-tert-Butoxycarbonylamino)cyclohexyl]-3-(3-chloro-4-methoxybenzyl)-5-trifluoromethyl-2,3-dihydro-1H-benzimidazol-2-one]",185.5 to 187
3,"COc1ccc(Cn2c(=O)n(C3CCCC3)c3ncc(C(F)(F)F)cc32)cc1OC [Example 2(13), 3-Cyclopentyl-1-(3,4-dimethoxybenzyl)-6-trifluoromethyl-2,3-dihydro-1H-imidazo[4,5-b]pyridin-2-one]",115 to 116
4,"COc1ccc(Cn2c(=O)n([C@H]3CC[C@H](OC(C)=O)CC3)c3ccc([N+](=O)[O-])cc32)cc1OC [Example 22(1), 1-(trans-4-Acetoxycyclohexyl)-3-(3,4-dimethoxybenzyl)-5-nitro-2,3-dihydro-1H-benzimidazol-2-one]",207 to 207.5
5,"CCOc1ccc(Cn2c(=O)n([C@H]3CC[C@H](O)CC3)c3ccc(C(F)(F)F)cc32)cc1Cl [Example 2(29), 3-(3-Chloro-4-ethoxybenzyl)-1-(trans-4-hydroxycyclohexyl)-5-trifluoromethyl-2,3-dihydro-1H-benzimidazol-2-one]",147.5 to 149
6,"COc1ccc(Cn2c(=O)n([C@H]3CC[C@H](O)CC3)c3ccc([N+](=O)[O-])cc32)cc1OC [Example 2(3), 3-(3,4-Dimethoxybenzyl)-1-(trans-4-hydroxycyclohexyl)-5-nitro-2,3-dihydro-1H-benzimidazol-2-one]",175 to 176
7,"COC(=O)c1ccc2c(c1)n(Cc1ccc(OC)c(Cl)c1)c(=O)n2[C@H]1CC[C@H](O)CC1 [Example 2(27), 3-(3-Chloro-4-methoxybenzyl)-1-(trans-4-hydroxycyclohexyl)-5-methoxycarbonyl-2,3-dihydro-1H-benzimidazol-2-one]",174 to 175
8,"COc1ccc(Cn2c(=O)n(C3CCCCC3)c3ccc(C(F)(F)F)cc32)cc1Cl [Example 2(37), 1-Cyclohexyl-3-(3-chloro-4-methoxybenzyl)-5-trifluoromethyl-2,3-dihydro-1H-benzimidazol-2-one]",160 to 161
9,"COc1ccc(Cn2c(=O)n([C@H]3CCN(C(=O)OC(C)(C)C)C3)c3ncc(C(F)(F)F)cc32)cc1Cl [Example 2(103), 3-((S)-1-tert-Butoxycarbonylpyrrolidin-3-yl)-1-(3-chloro-4-methoxybenzyl)-6-trifluoromethyl-2,3-dihydro-1H-imidazo[4,5-b]pyridin-2-one]",87 to 89
10,"COc1ccc(Cn2c(=O)n(C(C)C)c3ccc(C(F)(F)F)cc32)cc1Cl [Example 2(35), 3-(3-Chloro-4-methoxybenzyl)-1-isopropyl-5-trifluoromethyl-2,3-dihydro-1H-benzimidazol-2-one]",153.5 to 155
11,"COc1ccc(Cn2c(=O)n(C3CCCC3)c3ncc(C(F)(F)F)cc32)cc1Cl [Example 2(17), 1-(3-Chloro-4-methoxybenzyl)-3-cyclopentyl-6-trifluoromethyl-2,3-dihydro-1H-imidazo[4,5-b]pyridin-2-one]",156 to 157
12,"COc1ccc(Cn2c(=O)n(C(C)(C)C)c3ccc(C(F)(F)F)cc32)cc1Cl [Example 2(32), 1-(tert-Butyl)-3-(3-chloro-4-methoxybenzyl)-5-trifluoromethyl-2,3-dihydro-1H-benzimidazol-2-one]",130.5 to 131.5
13,"COc1ccc(Cn2c(=O)n([C@H]3CC[C@H](O)CC3)c3ccc(C(F)(F)F)cc32)cc1Br [Example 2(31), 3-(3-Bromo-4-methoxybenzyl)-1-(trans-4-hydroxycyclohexyl)-5-trifluoromethyl-2,3-dihydro-1H-benzimidazol-2-one]",182 to 182.5
14,"COc1ccc(Cn2c(=O)n([C@H]3CC[C@H](O)CC3)c3ccc(C(C)=O)cc32)cc1OC [Example 2(7), 5-Acetyl-3-(3,4-dimethoxybenzyl)-1-(trans-4-hydroxycyclohexyl)-2,3-dihydro-1H-benzimidazol-2-one]",169 to 170
15,"COc1ccc(Cn2c(=O)n([C@H]3CC[C@H](O)CC3)c3ccc([N+](=O)[O-])cc32)cc1Cl [Example 2(16), 3-(3-Chloro-4-methoxybenzyl)-1-(trans-4-hydroxycyclohexyl)-5-nitro-2,3-dihydro-1H-benzimidazol-2-one]",142 to 142.5
